Molecular target: VHL (Homo sapiens (Human), UniProt P40337)
Test: VHL fluorescence polarization (FP) competition assay
Assay type: binding

| SMILES | IC50 (1% in DMSO) | IC50 (10% in DMSO) |
| --- | --- | --- |
| COc1cccc(CCC(=O)N[C@H](C(=O)N2C[C@H](O)C[C@H]2C(=O)NCc2ccc(-c3scnc3C)cc2)C(C)(C)C)c1 [Example 77, (2S,4R)-4-hydroxy-1-((S)-2-(3-(3-methoxyphenyl)propanamido)-3,3-dimethylbutanoyl)-N-(4-(4-methylthiazol-5-yl)benzyl)pyrrolidine-2-carboxamide] | 0.55 µM | 0.349 µM |
| Cc1ncsc1-c1ccc(CNC(=O)[C@@H]2C[C@@H](O)CN2C(=O)[C@@H](NC(=O)c2ccccn2)C(C)(C)C)cc1 [Example 78, N—((S)-1-((2S,4R)-4-hydroxy-2-(4-(4-methylthiazol-5-yl)benzylcarbamoyl)pyrrolidin-1-yl)-3,3-dimethyl-1-oxobutan-2-yl)picolinamide] | 1.03 µM | 0.81 µM |
| CC(C)[C@@H](C(=O)N1C[C@](C)(O)C[C@H]1C(=O)O)N1Cc2ccccc2C1=O [Example 79, (2S,4R)-4-hydroxy-4-methyl-1-[(2S)-3-methyl-2-(1-oxo-2,3-dihydro-1H-isoindol-2-yl)butanoyl]pyrrolidine-2-carboxylic acid] | > 100 µM | > 100 µM |
| Cc1cnccc1-c1ccc(CNC(=O)[C@@H]2C[C@@H](O)CN2C(=O)[C@H](C(C)C)N2Cc3ccccc3C2=O)cc1 [Example 80, (2S,4R)-4-hydroxy-1-((S)-3-methyl-2-(1-oxoisoindolin-2-yl)butanoyl)-N-(4-(3-methylpyridin-4-yl)benzyl)pyrrolidine-2-carboxamide] | 22.4 µM | 38.9 µM |
| COc1ccc(CNC(=O)[C@@H]2C[C@@H](O)CN2C(=O)[C@H](C(C)C)N2Cc3ccccc3C2=O)cc1 [Example 81, (2S,4R)-4-hydroxy-N-(4-methoxybenzyl)-1-((S)-3-methyl-2-(1-oxoisoindolin-2-yl)butanoyl)pyrrolidine-2-carboxamide] | > 49 µM | 371 µM |
| Cc1ncsc1-c1ccc(CNC(=O)[C@@H]2C[C@@H](O)CN2C(=O)[C@H](C(C)C)N2Cc3ccccc3C2=O)c(F)c1 [Example 82, (2S,4R)—N-(2-fluoro-4-(4-methylthiazol-5-yl)benzyl)-4-hydroxy-1-((S)-3-methyl-2-(1-oxoisoindolin-2-yl)butanoyl)pyrrolidine-2-carboxamide] | 1.64 µM | 1.58 µM |
| COc1ccccc1CCC(=O)N[C@H](C(=O)N1C[C@H](O)C[C@H]1C(=O)NCc1ccc(-c2scnc2C)cc1)C(C)(C)C [Example 83, (2S,4R)-4-hydroxy-1-((S)-2-(3-(2-methoxyphenyl)propanamido)-3,3-dimethylbutanoyl)-N-(4-(4-methylthiazol-5-yl)benzyl)pyrrolidine-2-carboxamide] | 0.626 µM | 0.32 µM |
| Cc1ncsc1-c1ccc(CNC(=O)[C@@H]2C[C@@H](O)CN2C(=O)[C@@H](NC(=O)c2cccnc2)C(C)(C)C)cc1 [Example 84, N—((S)-1-((2S,4R)-4-hydroxy-2-(4-(4-methylthiazol-5-yl)benzylcarbamoyl)pyrrolidin-1-yl)-3,3-dimethyl-1-oxobutan-2-yl)nicotinamide] | 1.24 µM | 1.46 µM |
| CC(=O)NCC(=O)N1C[C@H](O)C[C@H]1C(=O)NCc1ccc(-c2scnc2C)cc1 [Example 86, (2S,4R)-1-(2-acetamidoacetyl)-4-hydroxy-N-(4-(4-methylthiazol-5-yl)benzyl)pyrrolidine-2-carboxamide] | 151 µM | 225 µM |
| CC(=O)O[C@@H](C)C(=O)N1C[C@H](O)C[C@H]1C(=O)NCc1ccc(-c2scnc2C)cc1 [Example 87, (S)-1-((2S,4R)-4-hydroxy-2-(4-(4-methylthiazol-5-yl)benzylcarbamoyl)pyrrolidin-1-yl)-1-oxopropan-2-yl acetate] | 384 µM | 263 µM |
| COc1ccc(C(=O)N2C[C@H](O)C[C@H]2C(=O)NCc2ccc(-c3scnc3C)cc2)c(C)c1 [Example 88, (2S,4R)-4-hydroxy-1-(4-methoxy-2-methylbenzoyl)-N-(4-(4-methylthiazol-5-yl)benzyl)pyrrolidine-2-carboxamide] | 20.4 µM | 39.2 µM |
| Cc1ncsc1-c1ccc(CNC(=O)[C@@H]2C[C@@H](O)CN2C(=O)C(N)C(F)(F)F)cc1 (stereo partly drawn) [Example 89, (2S,4R)-1-(2-amino-3,3,3-trifluoropropanoyl)-4-hydroxy-N-(4-(4-methylthiazol-5-yl)benzyl)pyrrolidine-2-carboxamide] | 60.6 µM | 139 µM |
| CC(=O)NC(C(=O)N1C[C@H](O)C[C@H]1C(=O)NCc1ccc(-c2scnc2C)cc1)C(F)(F)F (stereo partly drawn) [Example 90, (2S,4R)-1-(2-acetamido-3,3,3-trifluoropropanoyl)-4-hydroxy-N-(4-(4-methylthiazol-5-yl)benzyl)pyrrolidine-2-carboxamide] | 45.2 µM | 47.9 µM |
| CC(C)[C@@H](C(=O)N1C[C@H](O)C[C@H]1C(=O)NCc1ccc(N2CCOCC2)cc1)N1Cc2ccccc2C1=O [Example 91, (2S,4R)-4-hydroxy-1-((S)-3-methyl-2-(1-oxoisoindolin-2-yl)butanoyl)-N-(4-morpholinobenzyl)pyrrolidine-2-carboxamide] | > 100 µM | – |
| CC(C)[C@@H](C(=O)N1C[C@H](O)C[C@H]1C(=O)NCc1ccc(-c2ccnn2C)cc1)N1Cc2ccccc2C1=O [Example 92, (2S,4R)-4-hydroxy-N-(4-(1-methyl-1H-pyrazol-5-yl)benzyl)-1-((S)-3-methyl-2-(1-oxoisoindolin-2-yl)butanoyl)pyrrolidine-2-carboxamide] | 1.65 µM | – |
| Cc1ncsc1-c1ccc(CNC(=O)[C@@H]2C[C@@H](O)CN2C(=O)[C@H](C(C)C)N2Cc3ccccc3C2=O)cc1F [Example 93, (2S,4R)—N-(3-fluoro-4-(4-methylthiazol-5-yl)benzyl)-4-hydroxy-1-((S)-3-methyl-2-(1-oxoisoindolin-2-yl)butanoyl)pyrrolidine-2-carboxamide] | 1.2 µM | – |
| CC[C@H](C)[C@@H](C(=O)N1C[C@H](O)C[C@H]1C(=O)NCc1ccc(-c2scnc2C)cc1)N1Cc2ccc(F)cc2C1=O [Example 94, (2S,4R)-1-((2S,3S)-2-(6-fluoro-1-oxoisoindolin-2-yl)-3-methylpentanoyl)-4-hydroxy-N-(4-(4-methylthiazol-5-yl)benzyl)pyrrolidine-2-carboxamide] | 0.566 µM | – |
| COc1ccc(C)c(C(=O)N2C[C@H](O)C[C@H]2C(=O)NCc2ccc(-c3scnc3C)cc2)c1 [Example 95, (2S,4R)-4-hydroxy-1-(5-methoxy-2-methylbenzoyl)-N-(4-(4-methylthiazol-5-yl)benzyl)pyrrolidine-2-carboxamide] | 23.4 µM | – |
| CC(C)[C@@H](C(=O)N1C[C@H](O)C[C@H]1C(=O)NCc1ccc(-c2cncn2C)cc1)N1Cc2ccccc2C1=O [Example 96, (2S,4R)-4-hydroxy-N-(4-(1-methyl-1H-imidazol-5-yl)benzyl)-1-((S)-3-methyl-2-(1-oxoisoindolin-2-yl)butanoyl)pyrrolidine-2-carboxamide] | 35.4 µM | – |
| CC(C)[C@@H](C(=O)N1C[C@H](O)C[C@H]1C(=O)NCc1ccc(-c2cncs2)cc1)N1Cc2ccccc2C1=O [Example 97, (2S,4R)-4-hydroxy-1-((S)-3-methyl-2-(1-oxoisoindolin-2-yl)butanoyl)-N-(4-(thiazol-5-yl)benzyl)pyrrolidine-2-carboxamide] | 1.45 µM | – |
